Results reported in patent US6806267B1, “Apoptosis-inducing compounds” (priority 1998, dated 2004).

Columns and labels:
Format in all cases: cell-based, human
NFκB [1] = assay: NF kappa B binding activity, Hut-78 cells
Protocol: (§1) Cells were fractionated, and nuclear extracts were prepared as described by Stylianou et al. (1992). Briefly, cells were added to ice-cold phosphate-buffered saline and centrifuged using a swing out rotor at 136×g. They were washed in buffer A (10 mM Hepes, pH 7.9, 1.5 mM MgCl2, 10 mM KCl, […] [PMSF]) and centrifuged at 10000×g for 10 min. They were treated with buffer A+0.1% (vol/vol) Nonidet P40 on ice for 10 min. They were then centrifuged at 10000×g for 10 min and the pellet was treated with buffer C (20 mM Hepes, pH 7.9, 420 mM NaCl, 1.5 mM MgCl2, 2 mM EDTA, 20% [vol/vol] glycerol, 0.5 mM PMSF) on ice for 15 min. This material was centrifuged at 10000×g for 10 min and the supernatant was added to 75 u l of buffer D [10 mM Hepes, pH 7.9, 50 mM KCl, 0.2 mM EDTA, 20% (vol/vol) glycerol, 0.5 mM PMSF] per sample. The protein concentration in this crude nuclear extract was determined using the method of Bradford (1976). Protein (4 μg) was incubated with 10000 cpm of a ^32P-labelled oligonucleotide, containing the consensus sequence for NF kappa B, with binding buffer [40% (vol/vol) glycerol, 1 mM EDTA, 10 mM Tris, pH 7.5, 100 mM NaCl, 0.1 mg/ml nuclease free BSA] and 2 μg of poly(dI-dC) at room temperature for 30 min. Samples were resolved on a 5% native polyacrylamide gel which was subsequently dried and autoradiographed at −70° C. overnight.

Jurkat cells = conditions: 0.5 μM 1 hour, then etoposide 2.5 μM 1 hour
Protocol: (§2) This assay was set up as described by Kohn et al., 1976 with the following modifications.
(§3) Cells were seeded at 0.4×10^6 cells/ml and were in the logarithmic phase of growth. […] Cells harvested for the experiments were at a density of 2×10^6 cells/ml.
(§4) Cells (1×10^6) were labelled with [^3H] thymidine (sp. act. 2 Ci/mmol) (0.2 μCi/ml) and 1 μM unlabelled thymidine, and incubated for 20 hr. Cells were harvested by centrifugation at 500×g for 5 mins following by two washes in PBS and the pellet was resuspended in 3 ml of PBS. Cells were aliquoted into 1 ml amounts in a 24 well plate and allowed to recover for 1 hr at 37° C. before treating with indicated compounds. Following treatment, cells were washed once in PBS and resuspended in 250 μl of PBS. An aliquot of cells (200 μl) was loaded directly onto a 25 mm diameter glass fiber filter, pore size of 0.2 μM. The cells were lysed on the filter by the addition of 5 ml lysis buffer (2% (w/v) SDS, 10 mM disodium EDTA (pH 10) supplemented with 0.5 mg/ml proteinase K. The lysis buffer was allowed to flow slowly through the filter without suction. Filters were washed using 3 ml wash solution (0.02M Na3EDTA pH 10) allowing it to flow without suction. Filters were eluted in the dark with an alkaline solution (0.04M EDTA plus tetrapropylammonium hydroxide (10% in H2O ) added in the amount required to give pH 12.1). The elution apparatus consisted of a filter funnel with output tubing passing through a peristaltic pump to a collector. Elution took place overnight at a flow rate of 0.05 ml/min. Following elution, filters were treated with 0.4 ml HCl (1N) for 1 hr at 70° C. followed by 2.5 ml NaOH (0.4N) for 30 min at room temp. Scintillation fluid (10 ml) was added and radioactivity remaining on the filters was determined by scintillation counting.

K562 cells = conditions: 3 hours
Protocol: as §2, §3, §4

NFκB [2] = assay: NF kappa B binding activity, HL-60 nuclear extracts; conditions: HL-60 cells
Protocol: as §1

HL-60 cells = assay: Agarose gel electrophoresis of DNA ladders, HL-60 cells; conditions: 24 hours
[3] = system: CEM (T lymphoblastoid) cells; assay: Apoptosis in CEM cells (neo and Bcl-2 overexpressing)
[4] = system: CML cell lines K562, KYO.1 and Lama 84; assay: Agarose gel electrophoresis of DNA ladders, CML cells; conditions: all three CML cell lines
[5] = system: PARP (poly ADP-ribose polymerase); assay: Western blot of PARP cleavage in CML cells
Protocol: CML cells were seeded at 2×10^6 cells in 5 mls of growth medium, and treated with 10 μM PBOX-6 for 16 and 24 hr. Hela cells were seeded at 1×10^6 cells per 25 cm^2 flask. Following a 24 hour incubation, the cells were treated with PBOX-3 for a further 48 hours and the cells were scraped up. Cells were then centrifuged at 500 g for 5 min, the supernatant was removed and the pellet was resuspended in 200 μl of PARP sample buffer (62.5 mM Tris/HCl pH 6.8, 6 M urea, 10% (w/v) glycerol, 2% (w/v) SDS, 0.00125% bromophenol blue, and 5% (v/v) β-mercaptoethanol was added immediately before use). Samples were sonicated for 15 sec before aliquoting into 15 μl volumes. Samples were stored at −20° C. until use. 10-15 μl of thawed samples were resolved directly on a 10% polyacrylamide gel and transferred onto PVDF membrane at room temperature using wet transfer apparatus. After transfer, the membrane was blocked overnight in PBS containing 5% dry milk (Marvel). After blocking, the membrane was washed in PBST for 2×2 minutes before incubating for 1 hr with anti-PARP antibody (2 μg/ml in PBST containing 1% dry milk). Following incubation the membrane was washed for 20 minutes in PBST and incubated with goat anti mouse HRP conjugated secondary antibody (1:1000 dilution in PBST containing 1% dry milk). After washing in PBST for 30 minutes, ECL was used to visualise the proteins. […]

SMILES: CN(C)C(=O)OC1=C(c2cccc3ccccc23)Oc2ccccc2-n2cccc21 [PBOX-6, 7-((Dimethylcarbamoyl)oxy)-6-(1-naphthyl)pyrrolo[2,1-d][1,5]benzoxazepine]
- effect on NFκB (NFκB [1]): had no effect on NFκB
- effect of pretreatment on etoposide induced DNA strand breaks (Jurkat cells): did not prevent the induction of DNA strand breaks by etoposide
- DNA strand breaks (K562 cells): did not show any significant increase in DNA strand breaks
- effect on NFκB (NFκB [2]): failed to affect NFκB expression
- DNA fragmentation (ladder pattern) (HL-60 cells): resulted in DNA fragmentation
- induction of apoptosis in CEM cells overexpressing Bcl-2 ([3]; Bcl-2 overexpressing): dose-dependent induction of apoptosis
- induction of apoptosis in normal CEM cells ([3]; normal (neo) CEM): dose-dependent induction of apoptosis
- internucleosomal DNA fragmentation (DNA ladders) [4]: DNA laddering pattern was visible
- PARP cleavage ([5]; K562 24 hours, Lama 84 16 hours): PARP cleavage occurs
- PARP cleavage ([5]; KYO.1 cells, 24 hours): result in PARP cleavage
